Results taken from US20240285773A1, “METHODS OF TREATING MYELODYSPLASTIC SYNDROME AND MONITORING THE TREATMENT” (Geron Corporation, priority 2023, published 2024).
Several values for one entry are separate records, joined by “and”; a condition that tells them apart may be missing. Equal entries are not always repeated. Where two headings read alike, the source gives them in different places. [nps] = N3'→P5' thiophosphoramidate linkage; {Palm} = palmitoyl lipid

Tests used:
[1] = tested on: RBC transfusion-dependent patients with IPSS low or intermediate-1 risk MDS; assay: Phase 3 trial: hematologic improvement-erythroid (HI-E) and hemoglobin; type: in vivo, human
Description: The primary end point was rate of RBC-TI for 8 consecutive weeks or longer. Key secondary end points included rate of 24-week TI, duration of TI, and the rate of hematologic response (hematologic improvement-erythroid [HI-E], based on modified International Working Group [IWG] 2006 criteria, and HI-E per revised IWG 2018). Additional secondary end points included relative change in number of RBC transfusions received by patients, relative change in hemoglobin, and safety. The changes in mutational status and in patient-reported fatigue over time (assessed by the Functional Assessment of Chronic Illness Therapy [FACIT] Fatigue Scale) were exploratory end points. Subgroup analyses were performed including baseline presence or absence of RS, prior RBC transfusion burden (≥4 to ≤6 or >6 RBC units/8-weeks during a 16-week period prior to randomization), and low or intermediate-1 IPSS risk categories. Subgroup analyses were also performed, including baseline mutation status as well as telomerase activity (TA), telomere lengths (TL), and human telomerase reverse transcriptase (hTERT) levels. Peripheral blood hematology, bone marrow evaluation, mutation assessment, and cytogenetic evaluation were performed centrally and responses assessed by an independent review committee (IRC). Rate of 1-year RBC-TI was reported as a post hoc analysis.
Key Secondary End Point Rate of hematologic improvement, including HI-E: per modified IWG 2006.
Changes over time in transfusion units and hemoglobin levels were compared by a mixed model for repeated measures with weeks since randomization, prior transfusion burden, minimum hemoglobin in the 8 weeks prior to first dose (for hemoglobin), and treatment arm as the independent variables with autoregressive moving average covariance structure.

[2] = tested on: RBC transfusion-dependent patients with IPSS low or intermediate-1 risk MDS
DNMT3A = assay: Gene mutation analysis (NGS): DNMT3A VAF and clinical response; type: in vivo, human; settings: imetelstat group
Description: VAF for the target genes can be determined and/or measured using any convenient methods. In one such method, whole blood collected in an EDTA tube is used to perform Next Generation Sequencing (NGS), for example, using LeukoVantage®. NGS using any other sequencing platform can be used, for example, nanopore sequencing, paired-end sequencing, Ion Torrent sequencing, and single molecule real time (SMRT) sequencing. An MDS gene panel can be used. For example, a gene panel containing one or more of SF3B1, TET2, DNMT3A and ASXL1 can be used. […] The percentage of mutation reads will be reported and can be used to assess the size of the clonal population. VAF is the percentage of sequence reads observed matching a specific DNA variant divided by the overall coverage at that locus. […]
VAF changes were assessed from blood taken pre- and every 12 weeks post-treatment in patients with greater than or equal to 5% variant allele at baseline and >1 post-baseline assessment. T-tests evaluated group comparison, Fisher's exact test evaluated association, and linear regression evaluated correlation. […]
Blood samples were collected at baseline and during study visits approximately every 12 weeks. […] The lower limit of sensitivity is 5% mutated alleles in a mixed population; the percentage of mutation reads is reported and used to assess the size of the clonal population.

SF3B1 = assay: Gene mutation analysis (NGS): SF3B1 VAF and clinical response; type: in vivo, human
Description: VAF for the target genes can be determined and/or measured using any convenient methods. In one such method, whole blood collected in an EDTA tube is used to perform Next Generation Sequencing (NGS), for example, using LeukoVantage®. NGS using any other sequencing platform can be used, for example, nanopore sequencing, paired-end sequencing, Ion Torrent sequencing, and single molecule real time (SMRT) sequencing. An MDS gene panel can be used. For example, a gene panel containing one or more of SF3B1, TET2, DNMT3A and ASXL1 can be used. In a specific embodiment, a gene panel that includes the following 36 genes was used: ASXL1, ATM, BCOR, CBL, CEBPA, CSF3R, CUX1, DNMT3A, ETNK1, ETV6, EZH2, FLT3, GATA2, IDH1, IDH2, IKZF1, JAK2, KRAS, NF1, NPM1, NRAS, PHF6, PTEN, PTPN11, RUNX1, SETBP1, SF3B1, SRSF2, STAG2, STAT3, STK11, TET2, TP53, U2AF1, WT1, ZRSR2. The NGS assay can be performed using DNA bait capture methodology on the NextSeq® (Illumina®) platform. Following DNA extraction from leukocytes, a targeted, amplicon-based NGS method is used to detect mutations. […] The percentage of mutation reads will be reported and can be used to assess the size of the clonal population. VAF is the percentage of sequence reads observed matching a specific DNA variant divided by the overall coverage at that locus. Because NGS provides a near random sample, VAF is thus a surrogate measure of the proportion of DNA molecules in the original specimen carrying the variant.
VAF changes were assessed from blood taken pre- and every 12 weeks post-treatment in patients with greater than or equal to 5% variant allele at baseline and >1 post-baseline assessment. T-tests evaluated group comparison, Fisher's exact test evaluated association, and linear regression evaluated correlation. […] The patients achieving ≥8-weeks, ≥24-weeks, and >1-year TI in the imetelstat group were enriched with patients who had ≥50% reductions in SF3B1 and TET2 VAF compared with placebo (FIG. 10).
Blood samples were collected at baseline and during study visits approximately every 12 weeks. Following DNA extraction from leukocytes, a targeted, amplicon-based next generation sequencing was performed at Quest Diagnostics using DNA bait capture methodology on the NextSeq® (Illumina®) platform and a LeukoVantage® MDS Gene Panel covering 36 MDS-relevant genes. The lower limit of sensitivity is 5% mutated alleles in a mixed population; the percentage of mutation reads is reported and used to assess the size of the clonal population.

[3] = by lab assessment, listed as imetelstat
[4] = SF3B1 VAF ≥50% reduction No (N=55)
[5] = SF3B1 VAF ≥50% reduction Yes (N=23)

## Imetelstat: first-in-class telomerase inhibitor; synthetic lipid-conjugated 13-mer oligonucleotide N3′→P5′-thiophosphoramidate (TAGGGTTAGACAA; all [nps], 5' {Palm}, sugars by position and methylation of C not given here)
[1]; 8-week TI responders
  Median hemoglobin peak: 11.3 g/dL
[1]; 8-week TI responders, during TI period
  Median hemoglobin increase from pretreatment to peak: 3.55 g/dL and 3.6 g/dL
[1]; HTB subjects
  Major HI-E response, % difference vs placebo: 30.9%
  Minor HI-E response, % difference vs placebo: 34.8%
[1]; HTB subjects (97)
  Major HI-E response (16-week RBC-TI), patients: 30 No. of patients
  Minor HI-E response (50% RBC units reduction in 16 weeks), patients: 43 No. of patients
[1]; LTB subjects
  HI-E response (16-week RBC-TI), % difference vs placebo: 11.1%
[1]; LTB subjects (21)
  HI-E response (16-week RBC-TI), patients: 7 No. of patients
[1]; N=118
  HI-E per IWG 2006, patients: 75 n
  HI-E per IWG 2018, patients: 50 n
  Increase in hemoglobin ≥1.5 g/dL for ≥8 wk, patients: 40 n
  Transfusion reduction by 50%/16 weeks rate: 43.2%
  Transfusion reduction by 50%/16 weeks, patients: 51 n
  Transfusion reduction by ≥4 units/8 wk, patients: 71 n
[1]; N=118, listed as imetelstat
  HI-E per IWG 2018 rate: 42% and 42.4%
  Increase in hemoglobin ≥1.5 g/dL for ≥8 wk rate: 34%
[1]; in vivo
  HI-E IWG 2006, % difference vs placebo: 11.9%,
  HI-E IWG 2018, % difference vs placebo: 29.0%,
  Increase in hemoglobin ≥1.5 g/dL for ≥8 wk, % difference vs placebo: 23.9%
  Transfusion reduction by ≥4 units/8 wk, % difference vs placebo: 10.2%,
[1]; ≥1-year TI responders
  Median increase in hemoglobin during the longest TI interval: 5.2 g/dL and 5.18 g/dL
[2]; Cycle 10-12 (N=53)
  Thrombocytopenia, maximum postbaseline CTCAE Grade 4: 0 No. of Patients
[2]; N=118
  ALP abnormality, Grade 3-4: 0 No. of patients
  Serious TEAE: Abscess limb: 0 No.
[2]; N=118, listed as imetelstat
  Patients with any dose reduction: 49%
  Withdrawal TEAE: Neutropenia: 5%
  Withdrawal TEAE: Thrombocytopenia: 3%
[2]; TEAE, N=118
  Asthenia, Grade 3-4: 0 No. of patients
  Constipation, Grade 3-4: 0 No. of patients
  Edema peripheral, Grade 3-4: 0 No. of patients
[2]; by lab assessment
  G3/4 Neutropenia events: 279 no. of events
  G3/4 Neutropenia median duration: 1.86 Weeks
  G3/4 Thrombocytopenia events: 212 no. of events
  G3/4 Thrombocytopenia median duration: 1.43 Weeks
[2]; [3]
  G3/4 Neutropenia median duration: 1.9 Weeks
  G3/4 Thrombocytopenia median duration: 1.4 Weeks
[2]; in vivo
  Dose delays due to neutropenia: 50.8%
  Dose delays due to thrombocytopenia: 46.6%
  Dose reductions due to neutropenia: 33.1%
  Dose reductions due to thrombocytopenia: 22.9%
  Patients with cytopenias reversible to Grade ≤2 within 4 weeks: more than 80%
[2]; n=118
  Discontinued: Progressive disease: 6%
[2]; patients with TI ≥1 year
  Grade 3-4 neutropenia: 95%
  Grade 3-4 neutropenia, patients: 20 patients
  Grade 3-4 thrombocytopenia: 67%
  Grade 3-4 thrombocytopenia, patients: 14 patients
  Grade 3/4 neutropenia events, mean (SD) duration: 1.78 (1.58) weeks
  Grade 3/4 neutropenia reversible to grade ≤2 within 4 weeks: 81%
  Grade 3/4 thrombocytopenia events, mean (SD) duration: 2.25 (2.48) weeks
  Grade 3/4 thrombocytopenia reversible to grade ≤2 within 4 weeks: 89%
[2]; resolved to ≤ Grade 2
  G3/4 Neutropenia resolved <4 weeks: 81%
  G3/4 Thrombocytopenia resolved <4 weeks: 86%
DNMT3A; n=13
  Pearson's r: maximum % reduction in DNMT3A VAF vs maximum change in hemoglobin: −0.667
DNMT3A; n=18
  Pearson's r: maximum % reduction in DNMT3A VAF vs duration of TI: −0.545
SF3B1; 18 ≥1-year TI responders with mutation data
  Maximal reduction in SF3B1 VAF: −6% to −100%
SF3B1; [4]
  1-Year RBC-TI Yes: 5.5%
  8-Week RBC-TI Yes: 38.2%
  24-Week RBC-TI Yes: 23.6%
SF3B1; [5]
  1-Year RBC-TI Yes: 47.8%
  8-Week RBC-TI Yes: 82.6%
  24-Week RBC-TI Yes: 69.6%
SF3B1; imetelstat group, n=67
  Pearson's r: maximum % reduction in SF3B1 VAF vs maximum change in hemoglobin: −0.626
SF3B1; ≥1-year TI responders (of 18)
  Complete elimination of the SF3B1 VAF, patients: 7 patients
  ≥50% SF3B1 VAF reduction: 72.2%
  ≥50% SF3B1 VAF reduction, patients: 13 patients
